These results are taken from patent US5672597A, “Acetamide derivative” (Kaken Pharmaceutical Co., Ltd., priority 1992, dated 1997).

SMILES strings stand for the structures.

In test [1] the test system is ulcer induced by hydrochloric acid/ethanol. The test can be described thus: Test of ulcer induced by hydrochloric acid/ethanol. It counts as in vivo, wistar male rat. Particulars: 1 h; rat, 30 mg/kg oral, 30 minutes before hydrochloric acid/ethanol; hydrochloride salts; read-out: Percentage of inhibition of ulcer formation. The procedure: (§1) With respect to anti-ulcer effect of the compounds having the general formula (I), there were carried out a test of ulcer induced by pylorus-ligation, which ulcer is induced mainly due to offensive factors; a test of ulcer induced by hydrochloric acid/ethanol, which ulcer is induced mainly due to defensive factors such as mucosal blood flow and mucus; and a test of ulcer induced by a stress of restraint plus water-immersion, which ulcer is induced due to both of offensive and defensive factors. Further, there were carried out a test of ulcer induced by acetic acid as a chronic ulcer model and a test of cure-prolonged ulcer induced by acetic acid. Also, there was examined an activity of increasing gastric mucosal blood flow, which activity brings about acceleration of regeneration of the gastric mucosa. As test compounds, hydrochloride salts were used.
To a wistar male rat weighing 220 to 240 g, which had fasted and thirsted for 24 hours, was orally administered 150 mM hydrochloric acid/70% ethanol solution in an amount of 5 ml/kg (body weight). After 1 hour, the animal was sacrificed by dislocating the cervical vertebrae and the stomach was taken out therefrom. The length of the ulcer generated on the glandular stomach was measured and the total thereof was regarded as the ulcer coefficient (mm).
To control group, only the medium for the medicament solution was orally administered in an amount of […] (body weight), 30 minutes before the administration of hydrochloric acid/ethanol.
(§2) The obtained results were subjected to the same formula as in the test of ulcer induced by pylorus-ligation, to calculate a percentage of inhibition of ulcer formation. Six rats were used in each group for the test.

Test [2] has as its system gastric mucosal blood flow. Briefly: Activity of increasing gastric mucosal blood flow. It counts as in vivo, wistar male rat. The conditions noted are these: rat, urethane-anesthesia, 220 μg/kg intravenous, 60 minutes after administration. The procedure:
as §1
An amount of the mucosal blood flow in the body of the stomach of a wistar male rat weighing 220 to 240 g under urethane-anesthesia was measured by means of a laser doppler blood flow meter. As test compounds, there were used the compound of the present invention and, as comparative compound, FRG-8813. Each of them was intravenously administered in a dose of 220 μg/kg. A percentage of increase of the blood flow was calculated 60 minutes after the administration. Five rats were used for each group for the test.

Test [3] has as its system ulcer induced by pylorus-ligation. The test can be described thus: Test of ulcer induced by pylorus-ligation. The test is classed as in vivo, wistar male rat. The conditions noted are these: 14 h; rat, 100 mg/kg, in the duodenum immediately after ligating the pylorus; hydrochloride salts; read-out: Percentage of inhibition of ulcer formation. How it is done: as §1
The pylorus of a wistar male rat weighing 230 to 250 g, which had fasted for 48 hours, was ligated under ether-anesthesia, according to a usual method. After 14 hours, the animal was sacrificed by ether and the stomach was taken out therefrom.
The area of the ulcer generated on the fore-stomach was measured and the total area of the ulcer per rat was classified into the following six grades to give ulcer coefficients (Table 4).
Each of them was suspended in 0.5% methylcellulose solution and administered in the duodenum immediately after ligating the pylorus, in a dose of 100 mg/kg (body weight), respectively. To control group, only the medium for the medicament solution was administered in an amount of 0.25 ml/100 g (body weight).
The obtained results were subjected to the following formula to calculate a percentage of inhibition of ulcer formation. Six rats were used in each group for the test: [formula]

In test [4] the test system is cure-prolonged ulcer induced by acetic acid. The test can be described thus: Test of cure-prolonged ulcer induced by acetic acid. The test is classed as in vivo, wistar male rat. The conditions noted are these: rat, 50 mg/kg oral, twice a day; cure prolonged with indomethacin 1 mg/kg s.c. for 13 days. How it is done:
as §1
Into the junction of the glandular stomach and the antrum, of a wistar male rat weighing 220 to 240 g, was injected subserosally 30 μl of 20% acetic acid to generate an ulcer induced by acetic acid. From 2 days after the generation of the ulcer, indomethacin was injected subcutaneously in the regions of back of the rat in a dose of 1 mg/kg, once a day for 13 days to prolong the cure of the ulcer induced by acetic acid.
Each of them was suspended in 0.5% methylcellulose solution, and administered orally in a dose of 50 mg/kg, twice a day (in the morning and in the evening) from 13 days, respectively. The animal was sacrificed by ether on the day after the last administration, and the stomach was taken out therefrom. The area of the ulcer was measured. The obtained results were subjected to the following formula to calculate a percentage of improvement for curing ulcer. To control group, only the medium for the medicament solution was administered in an amount of 0.5 ml/100 g (body weight). Twenty rats were used in each group for the test. [formula]

Test [5] relates to ulcer induced by acetic acid. Briefly: Test of ulcer induced by acetic acid. The test is classed as in vivo, wistar male rat. The conditions noted are these: rat, 15 mg/kg oral, twice a day from 2 days after generation of the ulcer. How it is done:
as §1
Into the junction of the glandular stomach and the antrum, of a wistar male rat weighing 220 to 240 g, was injected subserosally […] of 20% acetic acid to generate an ulcer induced by acetic acid. […] Each of them was suspended in 0.5% methylcellulose solution, and administered orally in a dose of 15 mg/kg, twice a day (in the morning and in the evening) from 2 days after the generation of the ulcer for days, respectively. The animal was sacrificed by ether on the day after the last administration, and the stomach was taken out therefrom. The area of the ulcer was measured.
The obtained results were subjected to the following formula to calculate a percentage of improvement for curing ulcer. To control group, only the medium for the medicament solution was administered in an amount of 0.5 ml/100 g (body weight). Twenty rats were used in each group for the test. [formula]

Test [6] concerns ulcer induced by a stress of restraint plus water-immersion. The test can be described thus: Test of ulcer induced by a stress of restraint plus water-immersion. The test is classed as in vivo, ddY male mouse. The conditions noted are these: 7 h; mouse, 30 mg/kg oral, 15 minutes before the load of the stress; hydrochloride salts; read-out: Percentage of inhibition of ulcer formation. The procedure:
as §1
A ddY male mouse weighing 20 to 25 g, which had fasted for 18 hours, was put into a stress cage, and was loaded with a stress by immersing it in a water tank at 23° C., to a level of a xiphoid. After 7 hours, the animal was sacrificed by dislocating the cervical vertebrae and the stomach was taken out therefrom. The length of the ulcer generated on the glandular stomach was measured and the total thereof was regarded as the ulcer coefficient (mm).
To control group, only the medium for the medicament solution was orally administered in an amount of 0.1 ml/10 g (body weight) 15 minutes before the load of the stress.
as §2

As for `CCOC(=O)NCC[S+]([O-])CC(=O)NC/C=C\COc1cccc(CN2CCCCC2)c1` (stereo not drawn) [Example 75, N-[4-[3-(piperidinomethyl)phenoxy]-cis-2-butenyl]-2-[2-(ethoxycarbonylamino)ethylsulfinyl]acetamide], the inhibition in vivo at 30 mg/kg turned out to be 82% in test [1] and 87% in test [6]. Also, the “Percentage of increase of blood flow” value in test [2] worked out at 15%. Also, the inhibition in vivo at 100 mg/kg in test [3] came out at 96%. Also, the “Percentage of improvement for curing ulcer” value in test [4] was determined as 49%; in test [5] it was 24%.
As to `O=C(C[S+]([O-])Cc1ccco1)NC/C=C\COc1cc(CN2CCCCC2)ccn1` (stereo not drawn) [FRG-8813, reference compound], the inhibition in vivo at 30 mg/kg is 70% in test [1] and 85% in test [6]. Further, the “Percentage of increase of blood flow” value in test [2] is given as 3%. Moreover, in test [3], the inhibition in vivo at 100 mg/kg is 27%. Further, the “Percentage of improvement for curing ulcer” value in test [4] is recorded as -5%; in test [5], 12%.
